According to article PMC12507957 (Drug Delivery and Translational Research, 2025):
Values joined by “and” are separate entries in the source; they are usually repeats but may differ in a detail not shown here. Equal values may be shown once. Read-outs that look alike come from different tables or passages of the source. Marks after values point to notes of the source that are not given here.

Experiments:
[1] = In vitro skin permeation of 5%w/v MTG in single solvents (Franz diffusion cells), with infinite dose model fitting; type: in vitro ADME, porcine; conditions: for Papp at 48 h, 5 %w/v: pig, read-out: Kp (permeability coefficient) (converted)
Description: (§1) The in vitro permeation study was performed in triplicate using Franz diffusion cell apparatus with a diffusion area of ~ 0.8 cm^2 and a receptor volume of ~ 3 mL. The porcine skin was thawed at room temperature and cut into an appropriate size before mounting on the Franz diffusion cells. The receptor compartment was filled with PBS containing 0.02%w/v of sodium azide and a selected antioxidant. The Franz diffusion cells were placed into a water bath to maintain the skin temperature at 32 ± 0.5 °C. […] After 48-h permeation studies, the mass balance studies were performed.
Samples were analysed using Shimadzu liquid chromatographic system (Kyoto, Japan) with SPD-20A UV–vis detector set at 254 nm. A reverse phase ZORBAX Eclipse Plus C18 column (Agilent Technologies, 150 × 4.6 mm ID × 3.5 μm) coupled with a C18 guard column (Phenomenex SecurityGuard™, 4 × 3.0 mm ID × 5 μm) was employed as the stationary phase. A gradient elution method with acetonitrile and 0.1%v/v of formic acid as the mobile phase (30:70 to 70:30 (v/v) over 1 min and held until 4 min; then returned to 30:70 (v/v) from 4 to 6 min and held up until 10 min) at a flow rate of 1.2 mL/min was used. The injection volume was set at 100 μL and the total run time was 10 min with a retention time of ~ 4 min.
To estimate the permeation parameters (P1 and P2), the in vitro permeation data were fitted to the infinite dose model (Eq. 1) using non-linear least squares. This infinite dose model was obtained by solving the diffusion equation using Laplace transform, which was subsequently numerically inverted using Weeks method and fitted to in Python 3.13.3 (Python Software Foundation, Wilmington, DE, US).1 Q¯s=J·A/s=P1ACd/ss/P2sinhs/P2
Here, Q¯s is the cumulative amount of drug permeated, J is the permeation flux, A is the permeation area, Cd is the initial concentration, h is the membrane thickness and s is the Laplace variable. The apparent partition and apparent diffusion coefficients, P1 and P2, are related to the h and the diffusion (D) and partition (K) coefficients, as defined in Eq. 2 and Eq. 3 [32]. The goodness of fit was measured based on the coefficient of determination (R^2) and root mean square error (RMSE).2 P1=Kh 3 P2=D/h^2
The permeability coefficient (Kp), steady-state flux (Jss) and lag time (tlag) can then be calculated using Eqs. 4, 5, and 6 [33] with the estimated values of P1 and P2 from the curve fitting.4 Kp=P1P2 5 Jss=KpCd 6 tlag=h^2/6D
Other permeation parameters were determined experimentally, where A was 0.7–0.8 cm^2, h was 0.0586 cm, Cd was 50 mg/mL and the volume of drug loaded was 40 µL.

[2] = In vitro drug release of MTG from gels (Franz cell); conditions: nylon membrane, time point not clearly stated (steady release up to 2 h)
Description: as §1, with “performed. The samples were extracted for MTG content overnight before HPLC analysis.” for “performed.”
BHT at the optimised concentration was also added accordingly. The gels were evaluated for their drug content by mixing the gel in methanol for overnight extraction of MTG before HPLC analysis (Sect. HPLC analysis). In vitro drug release studies were carried out with a similar experimental setup as described in Sect. In vitro permeation and mass balance studies but porcine skin was replaced with a 0.45 µm nylon membrane filter and 40 μL of gel was loaded on the membrane at the donor compartment. Subsequent in vitro permeation and mass balance studies were performed as described in Sect. In vitro permeation and mass balance studies by loading 40 μL of the gel on the skin.

[3] = 5%w/v MTG in DMSO, receptor PBS with 0.01%w/v ascorbic acid (DMSO-AA), 48 h
[4] = 5%w/v MTG in DMSO, receptor PBS without ascorbic acid, 48 h
[5] = 5%w/v MTG in Labrasol, receptor PBS with 0.01%w/v ascorbic acid (Labrasol-AA), 48 h
[6] = 5%w/v MTG in Lauroglycol, receptor PBS with 0.01%w/v ascorbic acid (Lauroglycol-AA), 48 h
[7] = 5%w/v MTG in Maisine, receptor PBS with 0.01%w/v ascorbic acid (Maisine-AA), 48 h
[8] = 5%w/v MTG in Maisine, receptor PBS without ascorbic acid, 48 h
[9] = 5%w/v MTG in PG, receptor PBS with 0.01%w/v ascorbic acid (PG-AA), 48 h
[10] = 5%w/v MTG in PG, receptor PBS without ascorbic acid, 48 h
[11] = 5%w/v MTG in Transcutol, receptor PBS with 0.01%w/v ascorbic acid (Transcutol-AA), 48 h
[12] = 5%w/v MTG in Transcutol, receptor PBS without ascorbic acid, 48 h
[13] = 5%w/v in dimethyl sulphoxide and Transcutol, optimised receptor medium (0.01%w/v ascorbic acid in PBS)

In the case of `CC[C@@H]1CN2CCc3c([nH]c4cccc(OC)c34)[C@@H]2C[C@@H]1/C(=C\OC)C(=O)OC` [MTG, mitragynine], the “Jss (steady-state flux)” value [1, 3] is reported as 0.77 ± 0.18 µg/cm^2/h and 0.77 ± 0.18^d µg/cm^2/h, the “P1 (apparent partition coefficient)” value [1, 3] is reported as 20.35 ± 8.07 × 10^–4 cm and the “P2 (apparent diffusion coefficient)” value [1, 3] is reported as 8.01 ± 1.91 × 10^–3 h^−1. For the same molecule, the “Permeation (cumulative amount of MTG permeated)” value [1, 3] was 15.40 ± 2.40 µg/cm^2, the “tlag (lag time)” value [1, 3] was 21.53 ± 4.53 h and the “Cumulative amount of MTG permeated” value [1, 4] was 14.40 ± 3.34 μg/cm^2. The “Jss (steady-state flux)” value [1, 4] was 0.52 ± 0.15 µg/cm^2/h, the “P1 (apparent partition coefficient)” value [1, 4] was 8.90 ± 5.52 × 10^–4 cm and the “P2 (apparent diffusion coefficient)” value [1, 4] was 13.40 ± 4.73 × 10^–3 h^−1. For the same molecule, the “tlag (lag time)” value [1, 4] was 13.52 ± 4.70 h, the “Jss (steady-state flux)” value [1, 5] was 0.14 ± 0.11 µg/cm^2/h and the “P1 (apparent partition coefficient)” value [1, 5] was 6.83 ± 5.64^a × 10^–4 cm. The “P2 (apparent diffusion coefficient)” value [1, 5] was 4.33 ± 0.52 × 10^–3 h^−1, the “Permeation (cumulative amount of MTG permeated)” value [1, 5] was 1.53 ± 1.08 µg/cm^2 and the “tlag (lag time)” value [1, 5] was 38.85 ± 4.39^e,f h. The “Permeation (cumulative amount of MTG permeated)” value ([1]; 5%w/v MTG in Labrasol, receptor PBS without ascorbic acid, 48 h) was 1.36 ± 1.45 µg/cm^2, the “Jss (steady-state flux)” value [1, 6] was 0.11 ± 0.07 µg/cm^2/h and the “P1 (apparent partition coefficient)” value [1, 6] was 0.65 ± 0.09^a × 10^–4 cm. For the same molecule, the “P2 (apparent diffusion coefficient)” value [1, 6] was 33.50 ± 18.62^b × 10^–3 h^−1, the “Permeation (cumulative amount of MTG permeated)” value [1, 6] was 3.65 ± 2.40 µg/cm^2 and the “tlag (lag time)” value [1, 6] was 6.39 ± 4.02^e h. For the same molecule, the “Permeation (cumulative amount of MTG permeated)” value ([1]; 5%w/v MTG in Lauroglycol, receptor PBS without ascorbic acid, 48 h) was 0.77 ± 0.25 µg/cm^2, the “Jss (steady-state flux)” value [1, 7] was 0.27 ± 0.07 µg/cm^2/h and the “P1 (apparent partition coefficient)” value [1, 7] was 2.18 ± 0.48^a × 10^–4 cm. For the same molecule, the “P2 (apparent diffusion coefficient)” value [1, 7] was 25.90 ± 8.44 × 10^–3 h^−1, the “Permeation (cumulative amount of MTG permeated)” value [1, 7] was 8.39 ± 2.61 µg/cm^2 and the “tlag (lag time)” value [1, 7] was 7.05 ± 2.82^e h. For the same molecule, the “Jss (steady-state flux)” value [1, 8] was 0.10 ± 0.09 µg/cm^2/h, the “P1 (apparent partition coefficient)” value [1, 8] was 1.89 ± 1.95 × 10^–4 cm and the “P2 (apparent diffusion coefficient)” value [1, 8] was 12.86 ± 5.15 × 10^–3 h^−1. The “Permeation (cumulative amount of MTG permeated)” value [1, 8] was 2.26 ± 1.93 µg/cm^2, the “tlag (lag time)” value [1, 8] was 14.19 ± 4.62 h and the “Jss (steady-state flux)” value [1, 9] was 0.33 ± 0.12 µg/cm^2/h. The “P1 (apparent partition coefficient)” value [1, 9] was 9.49 ± 3.95 × 10^–4 cm, the “P2 (apparent diffusion coefficient)” value [1, 9] was 7.17 ± 0.89 × 10^–3 h^−1 and the “Permeation (cumulative amount of MTG permeated)” value [1, 9] was 6.06 ± 2.12 µg/cm^2 and 6.06 ± 2.13 µg/cm^2. For the same molecule, the “tlag (lag time)” value [1, 9] was 23.50 ± 2.93 h, the “Cumulative amount of MTG permeated” value [1, 10] was 5.24 ± 2.28 μg/cm^2 and the “Jss (steady-state flux)” value [1, 10] was 0.48 ± 0.37 µg/cm^2/h. The “P1 (apparent partition coefficient)” value [1, 10] was 25.55 ± 25.22 × 10^–4 cm, the “P2 (apparent diffusion coefficient)” value [1, 10] was 7.33 ± 6.13 × 10^–3 h^−1 and the “tlag (lag time)” value [1, 10] was 33.85 ± 20.70 h. For the same molecule, the “Jss (steady-state flux)” value [1, 11] was 0.46 ± 0.22 µg/cm^2/h, the “P1 (apparent partition coefficient)” value [1, 11] was 10.40 ± 4.15 × 10^–4 cm and the “P2 (apparent diffusion coefficient)” value [1, 11] was 8.76 ± 0.55 × 10^–3 h^−1. For the same molecule, the “Permeation (cumulative amount of MTG permeated)” value [1, 11] was 10.27 ± 4.40 µg/cm^2, the “tlag (lag time)” value [1, 11] was 19.07 ± 1.17 h and the “Jss (steady-state flux)” value [1, 12] was 0.44 ± 0.18 µg/cm^2/h. The “P1 (apparent partition coefficient)” value [1, 12] was 26.94 ± 23.48 × 10^–4 cm, the “P2 (apparent diffusion coefficient)” value [1, 12] was 4.29 ± 1.70 × 10^–3 h^−1 and the “Permeation (cumulative amount of MTG permeated)” value [1, 12] was 3.89 ± 1.41 µg/cm^2. For the same molecule, the “tlag (lag time)” value [1, 12] was 44.70 ± 22.17 h, the “Cumulative amount of MTG permeated” value ([1]; 5%w/v MTG in the rest of the solvents (other than DMSO), receptor PBS without ascorbic acid, 48 h) was less than 4 μg/cm^2 and the Drug permeation ([1]; 5%w/v in Labrasol and Lauroglycol, optimised receptor medium) was 1 – 4 μg/cm^2. For the same molecule, the Mitragynine permeated ([1]; 5%w/v in Maisine and propylene glycol, optimised receptor medium) was 6 – 8 µg/cm^2, the Mitragynine permeation [1, 13] was 10 – 15 µg/cm^2 and the Skin fluxes [1, 13] was 0.5 – 0.8 µg/cm^2/h. For the same molecule, the “MTG amount permeated with vs without ascorbic acid in receptor medium (times higher)” value ([1]; Transcutol-AA and Maisine-AA vs Transcutol and Maisine, 48 h) was 3–4 times, the Papp at 48 h, 5 %w/v [1, 3] was 0.00425 ×10⁻⁶ cm/s and the Papp at 48 h, 5 %w/v [1, 4] was 0.00291 ×10⁻⁶ cm/s. For the same molecule, the Papp at 48 h, 5 %w/v [1, 5] was 0.000775 ×10⁻⁶ cm/s, the Papp at 48 h, 5 %w/v [1, 6] was 0.000631 ×10⁻⁶ cm/s and the Papp at 48 h, 5 %w/v [1, 7] was 0.00151 ×10⁻⁶ cm/s. For the same molecule, the Papp at 48 h, 5 %w/v [1, 9] was 0.00183 ×10⁻⁶ cm/s, the Papp at 48 h, 5 %w/v [1, 10] was 0.00266 ×10⁻⁶ cm/s and the Papp at 48 h, 5 %w/v [1, 11] was 0.00257 ×10⁻⁶ cm/s. For the same molecule, the Papp at 48 h, 5 %w/v [1, 12] was 0.00247 ×10⁻⁶ cm/s, the Drug release percentage ([2]; 1% MTG gel with DMSO) was 65.07 ± 7.59% and the Drug release percentage ([2]; 1% MTG gel with PG) was 57.45 ± 3.18%. The Drug release percentage ([2]; 1% MTG gel with Transcutol) was 78.48 ± 6.17%.
